Like-named read-outs stand apart in the source and are kept apart here.
Columns and labels:
WM-164 = assay: Cytotoxicity / cell growth inhibition, SRB assay; assay type: cell-based; conditions: Homo sapiens, WM164, Table 6A
[1] = system: A375 human melanoma xenograft; assay: In vivo anti-tumor activity, A375 human melanoma xenograft on SHO mice; conditions: 25 mg/kg, 31 days
[2] = Pharmacokinetic study in ICR mice
Porcine brain tubulin = assay: In vitro microtubule polymerization assay; assay type: biochemical
[3] = Pharmacokinetic study in Sprague-Dawley rats; conditions: rat
in vivo = conditions: female, Sprague-Dawley, rat, plasma, 10 mg/kg
PC-3_TxR = assay: Cytotoxicity SRB assay, paclitaxel-resistant prostate line; conditions: for IC50: Homo sapiens, PC3-TxR, read-out: IC50 ± SEM (nM) PC-3_TxR; for Resistance Factor: PC-3_TxR versus PC-3
PPC-1 = assay: Cytotoxicity / cell growth inhibition, SRB assay; conditions: Homo sapiens
B16-F1 = assay: Cytotoxicity / cell growth inhibition, sulforhodamine B (SRB) assay; assay type: cell-based; conditions: Mus musculus, B16-F1, 96 h, 96 h of treatment, read-out: IC50 ± SEM (nM) B16-F1
LNCaP = assay: Cytotoxicity / cell growth inhibition, SRB assay; conditions: Homo sapiens, 96 h, read-out: IC50 ± SEM (nM) LNCaP, SRB assay, 96 h of treatment
PC-3 = assay: Cytotoxicity / cell growth inhibition, SRB assay; conditions: Homo sapiens, PC-3, 96 h, read-out: IC50 ± SEM (nM) PC-3, SRB assay, 96 h of treatment
DU 145 = assay: Cytotoxicity / cell growth inhibition, SRB assay; conditions: Homo sapiens, DU-145, 96 h, read-out: IC50 ± SEM (nM) DU 145, SRB assay, 96 h of treatment
A375 = assay: Cytotoxicity / cell growth inhibition, SRB assay; assay type: cell-based; conditions: Homo sapiens, A-375, 96 h, 96 h of treatment, read-out: IC50 ± SEM (nM) A375
OVCAR-8 = assay: Cytotoxicity SRB assay, MDR model parent line; assay type: cell-based; conditions: Homo sapiens
WM-164 melanoma cells = assay: Microtubule imaging (immunofluorescence, Cellomics Cytoskeleton rearrangement kit); assay type: cell-based, human; conditions: WM-164 cells, 18 h
Excerpt: Primary antibody for tubulin and fluorescence-labeled secondary antibody were subsequently added to the cells. Cell nuclei were stained by DAPI. Whole Cell Stain Green was also applied to all cells. All images were acquired with an Olympus IX71 inverted fluorescence microscope (Olympus Corp., Tokyo, Japan) with overlays from separate images of tubulin (red), nuclei (blue), and whole cells (green).

MES-SA/DX5 = assay: Growth inhibition SRB assay, P-gp over-expressing line; assay type: cell-based; conditions: Homo sapiens, Table 6, read-out: IC50 ± SEM (nM) MES-SA/Dx5
MES-SA = assay: Growth inhibition SRB assay, parental line; assay type: cell-based; conditions: Homo sapiens, Table 6, read-out: IC50 ± SEM (nM) MES-SA
[4] = system: T1, tubulin colchicine binding site; assay: [3H]-colchicine competition-binding scintillation proximity assay; conditions: SPA
T1 construct: […]; other: SPA

## O=C(c1ccc(F)cc1)c1csc(-c2ccccc2)n1 [compound 12]
WM-164
  IC50: > 10000 nM

## O=C(c1ccc(F)cc1)c1c[nH]c(-c2ccc(Cl)cc2)n1 [12fb, (2-(4-chlorophenyl)-1H-imidazol-4-yl)(4-fluorophenyl)methanone]
[1]
  tolerability (body weight, physical activity): well tolerated

## COc1cc(C(=O)c2csc(Nc3ccc4[nH]ccc4c3)n2)cc(OC)c1OC [compound 55, (2-(1H-indol-5-ylamino)thiazol-4-yl)(3,4,5-trimethoxyphenyl)methanone]
[2]; mouse, i.v. 10 mg/kg
  MousePK_IV10mgk_Cl: 40 mLmin/kg
  MousePK_IV10mgk_V: 1.3 Lkg
[2]; mouse, oral
  MousePK_Bioavailability: 34 %F
[2]; p.o. 20 mg/kg versus i.v. 10 mg/kg
  oral bioavailability, mice: 34%
Porcine brain tubulin
  inhibition of tubulin polymerization at 1 μM: 11%
[3]; i.v. 5 mg/kg
  RatPK_IV5mgk_V: 1.0 Lkg
[3]; p.o. 10 mg/kg
  RatPK_PO10mgk_AUC: 335 µg·min/mL
  RatPK_PO10mgk_Cmax: 1052 ng/mL
In vivo; oral
  bioavailability: 33%
In vivo; po
  bioavailability: 33%
PC-3_TxR
  IC50: 29 ± 1 nM
  Resistance Factor: 1.2

## O=C(c1ccc2[nH]ccc2c1)c1csc(-c2cc3ccccc3[nH]2)n1 [compound 21, (2-(1H-indol-2-yl)thiazol-4-yl)(1H-indol-5-yl)methanone]
PPC-1; PPC-1, 96 h, read-out: IC50 ± SEM (nM) PPC-1, SRB assay, 96 h of treatment
  IC50: 76 nM
B16-F1
  IC50: 110 nM
LNCaP
  IC50: 103 nM
PC-3
  IC50: 87 nM
DU 145
  IC50: 116 nM
A375
  IC50: 100 nM

## CC(=O)O[C@H]1C(=O)[C@@]2(C)[C@H]([C@H](OC(=O)c3ccccc3)[C@]3(O)C[C@H](OC(=O)[C@H](O)[C@@H](NC(=O)c4ccccc4)c4ccccc4)C(C)=C1C3(C)C)[C@]1(OC(C)=O)CO[C@@H]1C[C@@H]2O [paclitaxel]
PPC-1; PPC-1, 96 h, read-out: IC50 ± SEM (nM) PPC-1
  IC50: 2.3 nM
PPC-1; PPC-1, read-out: IC50 ± SEM (nM) PPC-1
  IC50: 2.3 ± 0.8 nM
PPC-1; PPC-1, read-out: IC50 ± SEM (nm) PPC-1
  IC50: 2.3 ± 0.8 nM
OVCAR-8; OVCAR-8, read-out: IC50 (nM) OVCAR-8
  IC50: 4.7 ± 0.1 nM
OVCAR-8; OVCAR-8, read-out: IC50 ± SEM (nm) OVCAR-8
  IC50: 4.7 ± 0.1 nM
WM-164 melanoma cells
  effect on microtubule arrangement: condensation of microtubules
MES-SA/DX5
  IC50: 6.6 nM
PC-3_TxR
  IC50: 97 ± 1 nM
  Resistance Factor: 20
MES-SA
  IC50: 2.7 nM
[4]
  competition for the tubulin colchicine binding site (in words): flat line

Reference: US9334242B2, “Compounds for treatment of cancer” (GTX, INC., priority 2010, dated 2016)
